# Assay results from US8916551B2, “Heterocyclic compound and use thereof” (Takeda Pharmaceutical Company Limited, priority 2010, dated 2014).
# Counter-ions that a name gives are not always drawn.
# Target: T1, AMPA receptor (human GluR1 flip/stargazin expressed in CHO-K1 cells) (Homo sapiens, UniProt P42261)
# T1 construct: expressed in transfected cells; host or cells: CHO-K1
# Experiment: AMPA receptor function enhancing activity using calcium influx as index
# Format: cell-based
# Details: test compound 30 μM with 3 mM glutamic acid, change in fluorescence level in 3 min, 100% = 3 mM glutamic acid + 300 μM cyclothiazide, 0% = 3 mM glutamic acid only
# Method in brief: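 CHO-K1 clone stably co-expressing human GluR1 flip and stargazin, loaded with Calcium 4 dye plus probenecid. Compound at 30 μM was added with glutamate (3 mM final) and fluorescence change followed over 3 min. Activity is expressed as % of the 3 mM glutamate plus 300 μM cyclothiazide response, with glutamate alone as 0%.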
# T1 sequence (P42261 19-906 isoform P42261-2 limits assumed): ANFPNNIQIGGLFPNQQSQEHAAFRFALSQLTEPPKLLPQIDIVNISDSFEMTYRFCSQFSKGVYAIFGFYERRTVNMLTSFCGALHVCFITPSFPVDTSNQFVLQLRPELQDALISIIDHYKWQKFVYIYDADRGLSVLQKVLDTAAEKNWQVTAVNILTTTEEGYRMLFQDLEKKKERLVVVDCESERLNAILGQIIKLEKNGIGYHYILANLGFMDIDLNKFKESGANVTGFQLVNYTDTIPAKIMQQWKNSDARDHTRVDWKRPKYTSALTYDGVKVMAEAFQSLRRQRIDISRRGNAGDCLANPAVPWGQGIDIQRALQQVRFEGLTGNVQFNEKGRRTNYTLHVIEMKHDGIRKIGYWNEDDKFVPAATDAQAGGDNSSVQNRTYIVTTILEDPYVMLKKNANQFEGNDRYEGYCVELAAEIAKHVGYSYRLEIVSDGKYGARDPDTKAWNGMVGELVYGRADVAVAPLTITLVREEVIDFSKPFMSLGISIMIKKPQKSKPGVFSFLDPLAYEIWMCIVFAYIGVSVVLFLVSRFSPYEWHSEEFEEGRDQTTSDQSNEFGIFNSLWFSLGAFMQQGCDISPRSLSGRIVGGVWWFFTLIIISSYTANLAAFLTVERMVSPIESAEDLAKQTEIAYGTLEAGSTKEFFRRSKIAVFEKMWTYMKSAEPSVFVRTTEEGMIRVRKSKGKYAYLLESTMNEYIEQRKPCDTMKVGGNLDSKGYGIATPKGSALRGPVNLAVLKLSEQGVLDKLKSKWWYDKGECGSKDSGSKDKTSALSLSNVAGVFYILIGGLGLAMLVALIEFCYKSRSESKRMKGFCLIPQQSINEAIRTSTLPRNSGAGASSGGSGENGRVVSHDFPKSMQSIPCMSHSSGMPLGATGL
# T1 sequence (Q9Y698 whole entry partner): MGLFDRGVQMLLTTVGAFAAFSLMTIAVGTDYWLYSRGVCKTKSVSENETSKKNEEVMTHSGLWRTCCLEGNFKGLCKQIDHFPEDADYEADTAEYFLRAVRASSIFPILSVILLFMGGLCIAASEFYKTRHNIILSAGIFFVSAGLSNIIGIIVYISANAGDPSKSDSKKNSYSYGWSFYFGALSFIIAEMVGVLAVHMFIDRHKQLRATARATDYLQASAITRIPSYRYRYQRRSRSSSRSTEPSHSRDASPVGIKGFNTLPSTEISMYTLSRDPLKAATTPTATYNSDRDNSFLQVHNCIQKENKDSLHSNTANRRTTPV
row,activity (%),SMILES
1,72,"O=S1(=O)CCN2C=CC=C(c3ccc(Oc4cccc(C(F)(F)F)c4)cc3)C2=N1 [Example 187, 9-{4-[3-(trifluoromethyl)phenoxy]phenyl}-3,4-dihydropyrido[2,1-c][1,2,4]thiadiazine 2,2-dioxide]"
2,87,"CC1CC(c2ccc(Oc3cccc(C(C)(F)F)c3)cc2)C2=NS(=O)(=O)CCN2C1 (stereo not drawn) [Example 171, 9-{4-[3-(1,1-difluoroethyl)phenoxy]phenyl}-7-methyl-3,4,6,7,8,9-hexahydropyrido[2,1-c][1,2,4]thiadiazine 2,2-dioxide]"
3,59,"CC(F)(F)c1ccc(C2CCCN3CCS(=O)(=O)N=C23)cc1 (stereo not drawn) [Example 230, 9-[4-(1,1-difluoroethyl)phenyl]-3,4,6,7,8,9-hexahydropyrido[2,1-c][1,2,4]thiadiazine 2,2-dioxide]"
4,74,"O=S1(=O)CCN2CCCC(c3ccc(C(F)(F)c4ccccc4)cc3)C2=N1 (stereo not drawn) [Example 163, 9-{4-[difluoro(phenyl)methyl]phenyl}-3,4,6,7,8,9-hexahydropyrido[2,1-c][1,2,4]thiadiazine 2,2-dioxide]"
5,73,"Cc1cccc(Oc2ccc(C3=CC=CN4CCS(=O)(=O)N=C34)cc2)n1 [Example 246, 9-{4-[(6-methylpyridin-2-yl)oxy]phenyl}-3,4-dihydropyrido[2,1-c][1,2,4]thiadiazine 2,2-dioxide]"
6,90,"CCCCn1ccc2cc(C3=CC=CN4CCS(=O)(=O)N=C34)ccc21 [Example 292, 9-(1-butyl-1H-indol-5-yl)-3,4-dihydropyrido[2,1-c][1,2,4]thiadiazine 2,2-dioxide]"
7,84,"O=S1(=O)CCN2C=CC=C(c3ccc(-c4ccccc4)nc3)C2=N1 [Example 282, 9-(6-phenylpyridin-3-yl)-3,4-dihydropyrido[2,1-c][1,2,4]thiadiazine 2,2-dioxide]"
8,56,"O=S1(=O)CCN2C=CC=C(c3ccc(C(F)(F)c4ccccc4)cc3)C2=N1 [Example 162, 9-{4-[difluoro(phenyl)methyl]phenyl}-3,4-dihydropyrido[2,1-c][1,2,4]thiadiazine 2,2-dioxide]"
9,90,"CC(F)(F)c1cccc(Oc2ccc(C3=CC=CN4CCS(=O)(=O)N=C34)cc2)c1 [Example 156, 9-{4-[3-(1,1-difluoroethyl)phenoxy]phenyl}-3,4-dihydropyrido[2,1-c][1,2,4]thiadiazine 2,2-dioxide]"
10,82,"O=S1(=O)CCN2C=CN=C(c3ccc(Oc4ccccc4)cc3)C2=N1 [Example 210, 9-(4-phenoxyphenyl)-3,4-dihydropyrazino[2,1-c][1,2,4]thiadiazine 2,2-dioxide]"
11,90,"O=S1(=O)CCN2C=CC=C(c3ccc(Oc4cncc(C(F)(F)F)c4)cc3)C2=N1 [Example 259, 9-(4-{[5-(trifluoromethyl)pyridin-3-yl]oxy}phenyl)-3,4-dihydropyrido[2,1-c][1,2,4]thiadiazine 2,2-dioxide]"
12,77,"O=S1(=O)CCN2CCC[C@@H](c3ccc(Oc4ccc(Cl)cc4)cc3)C2=N1 [Example 149, (9S)-9-[4-(4-chlorophenoxy)phenyl]-3,4,6,7,8,9-hexahydropyrido[2,1-c][1,2,4]thiadiazine 2,2-dioxide]"
13,69,"COc1cc(Oc2ccc(C3CC(C)CN4CCS(=O)(=O)N=C34)cc2)ccc1F (stereo not drawn) [Example 164, 9-[4-(4-fluoro-3-methoxyphenoxy)phenyl]-7-methyl-3,4,6,7,8,9-hexahydropyrido[2,1-c][1,2,4]thiadiazine 2,2-dioxide]"
14,90,"CC(F)(F)c1cccc(Oc2ccc(C3CCCN4CCS(=O)(=O)N=C34)cc2)c1 (stereo not drawn) [Example 159, 9-{4-[3-(1,1-difluoroethyl)phenoxy]phenyl}-3,4,6,7,8,9-hexahydropyrido[2,1-c][1,2,4]thiadiazine 2,2-dioxide]"
15,87,"O=S1(=O)CCN2CCCC(Oc3ccc4c(c3)CCCC4)C2=N1 (stereo not drawn) [Example 238, 9-(5,6,7,8-tetrahydronaphthalen-2-yloxy)-3,4,6,7,8,9-hexahydropyrido[2,1-c][1,2,4]thiadiazine 2,2-dioxide]"
16,84,"O=S1(=O)CCN2C=CC=C(c3ccc(Oc4ccnc(C(F)(F)F)c4)cc3)C2=N1 [Example 257, 9-(4-{[2-(trifluoromethyl)pyridin-4-yl]oxy}phenyl)-3,4-dihydropyrido[2,1-c][1,2,4]thiadiazine 2,2-dioxide]"

# Same assay, conditions: test compound 30 μM with glutamic acid final 3 mM, change in fluorescence in 3 min, 100% = 3 mM glutamic acid + 300 μM cyclothiazide, 0% = 3 mM glutamic acid only
row,activity (%),SMILES
1,82,"O=S1(=O)CCN2C=CC=C(c3ccc(C4(F)COC4)cc3)C2=N1 [Example 396, 9-[4-(3-fluorooxetan-3-yl)phenyl]-3,4-dihydropyrido[2,1-c][1,2,4]thiadiazine 2,2-dioxide]"
2,66,"CCC(C)c1ccc(NC(=O)C2=NC=CN3CCS(=O)(=O)N=C23)cc1 (stereo not drawn) [Example 1, N-[4-(1-methylpropyl)phenyl]-3,4-dihydropyrazino[2,1-c][1,2,4]thiadiazine-9-carboxamide 2,2-dioxide]"
3,83,"O=S1(=O)CCN2C=CC=C(c3ccc(N4CCOCC4)cc3)C2=N1 [Example 397, 9-(4-morpholin-4-ylphenyl)-3,4-dihydropyrido[2,1-c][1,2,4]thiadiazine 2,2-dioxide]"
4,89,"COc1cc(Oc2ccc(C3=CC=CN4CCS(=O)(=O)N=C34)cc2)ccc1F [Example 316, 9-[4-(4-fluoro-3-methoxyphenoxy)phenyl]-3,4-dihydropyrido[2,1-c][1,2,4]thiadiazine 2,2-dioxide]"
5,64,"[2H]C1(c2ccc(-c3ccccc3)c(F)c2)NCCN2CCS(=O)(=O)N=C21 (stereo not drawn) [Example 348, 9-(2-fluorobiphenyl-4-yl)(9-^2H)-3,4,6,7,8,9-hexahydropyrazino[2,1-c][1,2,4]thiadiazine 2,2-dioxide Hydrochloride]"
6,64,"O=S1(=O)CCN2CCCC(c3ccc4c(ccn4CCc4ccc(F)cc4)c3)C2=N1 (stereo not drawn) [Example 295, 9-{1-[2-(4-fluorophenyl)ethyl]-1H-indol-5-yl}-3,4,6,7,8,9-hexahydropyrido[2,1-c][1,2,4]thiadiazine 2,2-dioxide]"
7,77,"Cc1ccc(C(F)(F)c2ccc(C3=CC=CN4CCS(=O)(=O)N=C34)cc2)cc1 [Example 136, 9-{4-[difluoro(4-methylphenyl)methyl]phenyl}-3,4-dihydropyrido[2,1-c][1,2,4]thiadiazine 2,2-dioxide]"
8,98,"COc1ccc2cc(C3CCCN4CCS(=O)(=O)N=C34)ccc2c1 (stereo not drawn) [Example 128, 9-(6-methoxynaphthalen-2-yl)-3,4,6,7,8,9-hexahydropyrido[2,1-c][1,2,4]thiadiazine 2,2-dioxide]"
9,74,"O=S1(=O)CCN2CCCC(c3ccc(-c4ccccc4)c(F)c3)C2=N1 (stereo not drawn) [Example 96, 9-(2-fluorobiphenyl-4-yl)-3,4,6,7,8,9-hexahydropyrido[2,1-c][1,2,4]thiadiazine 2,2-dioxide]"
10,71,"Cc1ccc(C(F)(F)c2ccc(C3CCCN4CCS(=O)(=O)N=C34)cc2)cc1 (stereo not drawn) [Example 138, 9-{4-[difluoro(4-methylphenyl)methyl]phenyl}-3,4,6,7,8,9-hexahydropyrido[2,1-c][1,2,4]thiadiazine 2,2-dioxide]"
11,86,"O=S1(=O)CCN2CCCC(c3ccc(-c4ccccc4)s3)C2=N1 (stereo not drawn) [Example 57, 9-(5-phenylthiophen-2-yl)-3,4,6,7,8,9-hexahydropyrido[2,1-c][1,2,4]thiadiazine 2,2-dioxide]"
12,87,"O=C(c1ccccc1)c1ccc(C2CCCN3CCS(=O)(=O)N=C23)cc1 (stereo not drawn) [Example 304, [4-(2,2-dioxido-3,4,6,7,8,9-hexahydropyrido[2,1-c][1,2,4]thiadiazin-9-yl)phenyl](phenyl)methanone]"
13,75,"CCc1cccc(Oc2ccc(C3CCCN4CCS(=O)(=O)N=C34)cc2)c1 (stereo not drawn) [Example 132, 9-[4-(3-ethylphenoxy)phenyl]-3,4,6,7,8,9-hexahydropyrido[2,1-c][1,2,4]thiadiazine 2,2-dioxide]"
14,63,"Cc1ccc(Cc2ccc(C3CCCN4CCS(=O)(=O)N=C34)cc2)cc1 (stereo not drawn) [Example 324, 9-[4-(4-methylbenzyl)phenyl]-3,4,6,7,8,9-hexahydropyrido[2,1-c][1,2,4]thiadiazine 2,2-dioxide]"
15,82,"CCCCn1ccc2cc(C3CCCN4CCS(=O)(=O)N=C34)ccc21 (stereo not drawn) [Example 294, 9-(1-butyl-1H-indol-5-yl)-3,4,6,7,8,9-hexahydropyrido[2,1-c][1,2,4]thiadiazine 2,2-dioxide]"
16,80,"Cc1ccccc1Oc1ccc(C2=CC=CN3CCS(=O)(=O)N=C23)cc1 [Example 115, 9-[4-(2-methylphenoxy)phenyl]-3,4-dihydropyrido[2,1-c][1,2,4]thiadiazine 2,2-dioxide]"
17,67,"CC(C)c1ccc(COC2=CC=CN3CCS(=O)(=O)N=C23)cc1 [Example 52, 9-{[4-(1-methylethyl)benzyl]oxy}-3,4-dihydropyrido[2,1-c][1,2,4]thiadiazine 2,2-dioxide]"
18,58,"CCc1cccc(Oc2ccc(C3CCCN4CCS(=O)(=O)N=C34)cc2)c1 (stereo not drawn) [Example 131, 9-[4-(3-ethylphenoxy)phenyl]-3,4,6,7,8,9-hexahydropyrido[2,1-c][1,2,4]thiadiazine 2,2-dioxide]"
19,79,"Cc1cccc(Oc2ccc(C3CCCN4CCS(=O)(=O)N=C34)cc2)c1 (stereo not drawn) [Example 118, 9-[4-(3-methylphenoxy)phenyl]-3,4,6,7,8,9-hexahydropyrido[2,1-c][1,2,4]thiadiazine 2,2-dioxide]"

row,SMILES,activity (%)
1,"CC(C)(C)Oc1ccc(C2=CC=CN3CCS(=O)(=O)N=C23)cc1 [Example 411, 9-(4-tert-butoxyphenyl)-3,4-dihydropyrido[2,1-c][1,2,4]thiadiazine 2,2-dioxide]",86
